Assay results as given in patent US20230102223A1, “PHARMACEUTICAL COMPOSITIONS WITH ANTIFLAVIVIRAL ACTIVITY” (HEALTH RESEARCH, INC., priority 2016, published 2023).
Read-outs that look alike come from different tables or passages of the source.

Columns and labels:
[1] = biological target: refolded His-NS3 protease domain (Dengue virus type 2, UniProt P29990); assay: Surface plasmon resonance (SPR); format: binding; conditions: 25° C., 1:1 Langmuir binding model; read-out: dissociation constant (KD)
Chain of refolded His-NS3 protease domain (P29990 1476-1653 limits assumed): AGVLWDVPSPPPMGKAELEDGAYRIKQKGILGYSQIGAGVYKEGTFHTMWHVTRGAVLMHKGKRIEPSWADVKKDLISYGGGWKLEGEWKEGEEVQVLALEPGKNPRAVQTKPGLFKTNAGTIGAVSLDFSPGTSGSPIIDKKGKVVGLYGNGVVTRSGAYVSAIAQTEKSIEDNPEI

[2] = biological target: ZIKV GST-NS3 protease domain / FLAG-tagged ZIKV NS2B (Zika virus, UniProt Q32ZE1); assay: Competitive GST pull-down assay; format: binding; conditions: pre-incubation with GST-NS3 beads; dose-dependent
Chain of ZIKV GST-NS3 protease domain / FLAG-tagged ZIKV NS2B (Q32ZE1 1499-1676): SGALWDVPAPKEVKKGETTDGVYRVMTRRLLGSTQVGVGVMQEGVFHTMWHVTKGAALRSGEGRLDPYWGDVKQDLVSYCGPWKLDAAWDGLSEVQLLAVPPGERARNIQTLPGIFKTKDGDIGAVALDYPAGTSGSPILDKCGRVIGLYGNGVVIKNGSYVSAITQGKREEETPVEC
Protocol: GST-NS3 or the GST-tag (10 μg) was immobilized on Glutathione sepharose-4B affinity beads (GE HealthCare). FLAG-tagged NS2B (10 μg) was incubated with the beads for 2 hours, and subjected to WB, using anti-FLAG (Genscript) and anti-GST antibodies (GE Healthcare). […] The assay was performed the same as in FIG. 32A, except that 2-fold dilution series of drugs were incubated with the GST-NS3 beads overnight prior to incubation with the FLAG-NS2B. […] The binding of NS2B to NS3 in the absence of each drag (DMSO control) was set as 100%. The relative binding of NS2B to NS3 in the presence of each drug was normalized to the DMSO control.

[3] = biological target: DENV2 His-NS2B/His-MBP-NS3 protease (Dengue virus type 2, UniProt P29990); assay: NS2B/NS3 protease inhibition assay; format: biochemical
Chain of DENV2 His-NS2B/His-MBP-NS3 protease (P29990 1476-1660 limits assumed): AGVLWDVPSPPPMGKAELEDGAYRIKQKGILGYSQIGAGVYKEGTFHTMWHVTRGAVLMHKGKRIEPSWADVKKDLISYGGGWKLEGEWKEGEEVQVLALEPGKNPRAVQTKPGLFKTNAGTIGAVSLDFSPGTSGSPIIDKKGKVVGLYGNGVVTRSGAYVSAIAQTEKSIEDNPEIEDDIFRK

SLEV = format: cell-based, St. Louis encephalitis virus; conditions: without ambient light (in dark)
JEV = assay: microbe, parasite or virus in culture; format: cell-based, Japanese encephalitis virus; conditions: JEV*, without ambient light (in dark)
ZIKV strain GZ01/2016 = assay: Viremia model in immunocompetent Balb/C mice; format: in vivo; conditions: 0.02 mg/mice ip daily for 2 days; RT-qPCR on day 2 post-infection
Protocol: Viremia on day 2 post-infection (pi) was determined by RT-qPCR, and statistical analysis was performed using the unpaired, two-tailed t-test.

ZIKV GZ01/2016 strain = assay: Lethal A129 mice model; format: in vivo; conditions: 1 mg/kg ip daily for 5 days
Source text: For the lethal A129 mice model, a group of four-week old A129 mice were infected intraperitoneally (ip) with 2×10^5 PFU of ZIKV GZ01/2016 strain. […] Mice were observed daily for signs of illness and mortality. Survival curves were compared using the Log-rank test. All the ZIKV-infected animals treated with vehicle died with typical neurological symptoms including hind limb weakness and paralysis (FIG. 31B). […] Viremia was detected by RT-qPCR on day 2 post-ZIKV infection in three-week old Balb/C mice.

ZIKV NS3 expression = assay: Western blot of viral protein expression; format: cell-based; conditions: 48 hrs; dose-dependent
Protocol: The ability of compounds to inhibit viral protein expression was also tested by WB, using GTX133309 ZIKV α-NS3 antibody (GeneTex, Inc.).
Lower panel, NS3 expression normalized to the GAPDH loading control.

DENV2 His-MBP-NS3 = DENV2 His-MBP-NS3 (Dengue virus type 2, UniProt P29990); assay: Protein thermal shift assay (PTSA); format: binding; conditions: compound 4.8 μM, protein 2.5 μM
Chain of DENV2 His-MBP-NS3 (P29990 1476-1660 limits assumed): as above
Protocol: PTSA was conducted using an Applied Biosystem 7500 Fast Real-Time PCR System (ThermoFisher Scientific) from 25 to 80° C. The DENV2 His-MBP-NS3 (final concentration of 2.5 μM in 1× PBS) was mixed with each compound to attain a 4.8 μM final concentration in 1.6% DMSO in the MicroAmp® Fast Optical 96-Well Reaction Plate (ThermoFisher Scientific). Thermal denaturation was monitored using SYPRO Orange (Life Technologies) according to manufacturer's manual. The denaturation of the proteins was monitored by following the increase of the fluorescence emitted by the probe that binds exposed hydrophobic regions of the denatured protein. The melting temperature (Tm) was calculated as the mid-log of the transition phase from the native to the denatured protein, using a Derivative model using the Protein Thermal Shift™ Software v1.0 (ThermoFisher Scientific). The reference unfolding temperature of proteins in 1.6% DMSO (Tm-DMSO) was subtracted from the values in the presence of each compounds (Tm-comp) to obtain thermal shifts, ΔTm=Tm-comp−Tm-DMSO. Compounds were considered to be binders when ΔTm>0.5° C.

[4] = biological target: NS2B-NS3 interactions (Nluc-E66stop/GCN) (Dengue virus type 2, UniProt P29990); assay: biochemical; format: binding, DENV2; conditions: NS2B-NS3 SLC signal; read-out: SLC IC50
Chain of NS2B-NS3 interactions (Nluc-E66stop/GCN) (P29990 1476-1660 limits assumed): as above

ZIKV = assay: Time-of-addition experiment in infected A549 cells; format: cell-based, Zika virus; conditions: for virus reduction: titers at 48 h, no ambient light
WNV = assay: microbe, parasite or virus in culture; format: cell-based, West Nile virus; conditions: WNV*, without ambient light (in dark)
YFV = assay: microbe, parasite or virus in culture; format: cell-based, yellow fever virus; conditions: YFV*, without ambient light (in dark)
[5] = tested on: ZIKV (Puerto Rico strain PRVABC59); assay: Viral titer reduction assay in A549 cells, ZIKV; format: cell-based, Zika virus
A549 cells = assay: Cytotoxicity, MTT or WST-8 cell proliferation assay
POWV = format: cell-based, Powassan virus; conditions: without ambient light (in dark)
ZIKV strain GZ01 = conditions: ZIKV strain GZ01, Vero cells, RT-qPCR
[6] = ZIKV*, without ambient light (in dark)

3-[10,15,20-tris(3-hydroxyphenyl)-2,3,22,24-tetrahydroporphyrin-5-yl]phenol [Temoporfin]
EC50 (DENV2; DENV2, Table 3): 20 ± 3 nM | EC90 (DENV2; DENV2, Table 3): 110 nM | EC50 (DENV2; read-out: EC50 (DENV2), Table 1): 73 nM | Kd [1]: 400 nM | binding of FLAG-NS2B to GST-NS3 [2]: significantly decreased the binding | IC50 ([3]; Table 1, read-out: NS2B-MBP NS3 protease IC50): 760 nM | IC50 ([3]; Table 3, read-out: IC50-pro): 1100 ± 100 nM | Vmax of the His-NS2B/MBP-NS3 hetero protease complex, % of the DMSO control ([3]; compound at 1.5 μM, 50 nM MBP-NS3, 1 μM His-NS2B, Abz substrate): 57% | Km versus DMSO control ([3]; compound at 1.5 μM, Abz substrate): similar | EC50 (SLEV): 8 ± 1 nM | EC90 (SLEV): 25 nM | EC50 (JEV): 11 ± 1 nM | EC90 (JEV): 25 nM | reduction in ZIKV-induced viremia compared to the vehicle control (ZIKV strain GZ01/2016): about 100 fold | infected animals protected (survival) (ZIKV GZ01/2016 strain): 83% | expression of ZIKV NS3 (western blot) (ZIKV NS3 expression): significantly inhibited | Tm compared to the DMSO control (DENV2 His-MBP-NS3): increased Tm | IC50 [4]: 11200 nM | virus reduction (ZIKV; 90 nM added at 0 hours postinfection): 92.3% | virus reduction (ZIKV; 90 nM added at 1 hour postinfection): 92% | virus reduction (ZIKV; 90 nM added at 3 hours postinfection): 90.5% | virus reduction (ZIKV; 90 nM added at 22 hours postinfection): 86.5% | effectiveness of addition at 24-hour post-infection versus at the time of infection (ZIKV; temoporfin 90 nM, niclosamide 0.75 μM, viral plaque reduction assay): almost equally effective | EC90 (WNV): 30 nM | EC50 (WNV; read-out: EC50): 10 ± 1 nM | EC50 (YFV; read-out: EC50): 6 ± 1 nM | EC90 (YFV; read-out: EC90): 15 nM | EC50 ([5]; ZIKV): 24 ± 3 nM | EC90 ([5]; ZIKV): 130 nM | EC50 [5, 6]: 22 ± 2 nM | EC90 [5, 6]: 120 nM | titer of ZIKV in the absence of light exposure ([5]; in dark): significantly reduced the titer | CC50 (A549 cells; A549 cells, Table 1): 40700 nM | CC50 (A549 cells; Table 3): 40700 ± 700 nM | EC50 (POWV): 10 ± 1 nM | EC90 (POWV): 32 nM | EC50 value (ZIKV strain GZ01): 0.1 µg/mL
